In patent US5118601A, “Method of screening purine nucleoside compounds or analogs for the ability to enhance the cellular synthesis and release of adenosine” (The Regents of the University of California, priority 1989, dated 1992):
Where “and” joins values, the source holds several entries; their conditions need not be identical. Equal entries are not always repeated.

How the values were obtained:
ischemic myocardium [1] = experiment: Venous inosine levels during coronary artery occlusion in dogs; format: in vivo, dog; settings: over the 60-minute assay period
Protocol: (§1) Thirteen mongrel dogs were anesthetized with phenobarbital. […] C.V. Dis. 20; 55 (1977). […] Two of the surviving saline-treated animals fibrillated. […] The range was 4.4 to 100 μM.
That the increase in the levels of adenosine is due, at least in part, to a reduction in the amount of ATP that is converted to inosine was shown by analysis of venous blood from dogs in Example III for inosine levels.

[2] = tested on: human splenic lymphoblast cell line (WI-L2); experiment: Adenosine release by WI-L2 lymphoblasts during ATP breakdown (2-deoxyglucose); format: cell-based
Protocol: The history and properties of the cell line have been described by Hershfield et al. in Science, Vol. 197, p. 1284, 1977.
Catabolism of cellular ATP stores was stimulated by adding either 2-deoxyglucose or a calcium ionophore. At various times, the amount of adenosine released by the cells into the supernatant, or the amount of nucleotides remaining in the cells, was determined by mixing 3 μl of chilled 4.4N perchloric acid with 300 μl of supernatants, or by adding 300 μl of chilled 0.4N perchloric acid to the cell collected as pellets and centrifuging the mixtures at 500×G for 10 minutes at 4° C. […] 1245, 1975. Following centrifugation at 1500×G for three minutes at 4° C., the aqueous phase is removed and frozen at -20° C. until assayed for adenosine, inosine, or for nucleotides. Adenosine was evaluated isocratically on a C-18 microBondapak reverse phase column equilibrated with 4 millimolar potassium phosphate, (pH 3.4):acetonitrile 60% in water (95:5 v/v) buffer. Adenosine elutes at 8-10 minutes, and its identity was confirmed by its sensitivity to adenosine deaminase and by spiking with adenosine standards. The extracted samples from the cell pellet were analyzed for nucleotides by high pressure liquid chromatography on a Whatman Partisil-10 (SAX) column equilibrated with 10 millimolar potassium phosphate, pH 3.78, and eluted with a linear gradient to a 0.25 molar potassium phosphate, 0.5 molar KCl, pH 3.45. […] Peaks were quantitated by comparison with high pressure liquid chromatography analysis of suitable standards.
Cells were grown to about 0.5×10^6 cells/ml (mid-log phase) in FIG. 2 and to about 1.0×10^6 cells/ml (early stationary phase) in FIGS. 7-9.

[3] = tested on: HPRT- neuroblastoma cells; experiment: Adenosine excretion by stimulated HPRT- neuroblastoma cells (calcium ionophore A23187); format: cell-based; settings: for correction of lowered adenosine secretion of cells deficient in hypoxanthine phosphoribosyl transferase: pretreatment
Protocol: (§2) To induce ATP catabolism, the growth medium was replaced by medium containing micromolar amounts of the calcium ionophore A23187 and 1.0 μM deoxycoformycin.

[4] = tested on: Mouse bone marrow-derived mast cells; experiment: Mast cell beta-hexosaminidase release (degranulation); format: cell-based
Protocol: (§3) By preventing mast cell degranulation, it is possible to prevent or control a patient's allergic response. Bone marrow obtained from Balb/C mice femurs was cultured in a 1:1 mixture of Razin media and conditioned media, produced by co-culturing splenocytes from C57B1/6J and C3H mice in the present of Concanavalin A as described by Razin et al. in the Proc. Natl. Acad. Sci. USA 28: 2559-2561, 1981. After weekly passaging and at least 15 days in tissue culture, the resulting cells were 90% pure mast cells and 95% viable as assessed by Trypan blue exclusion. Cells exposed to ribavirin in culture were washed three times prior to use in experiments. Parallel cultures of cells grown in media alone were used as controls for pharmacologically manipulated mast cells. Cell growth was assessed by counting cells at particular time pints and comparing actual numbers of ribavirin-treated cells to numbers of cells grown in media alone.
β-hexosaminidase was chosen as a representative granule-associated, preformed mast cell mediator because it is easily quantitated, and its release nearly identically parallels that of histamine. Mouse bone marrow-derived mast cells were centrifuged at 200×g for 5 minutes, washed three times in Tyrode's buffer lacking divalent cations, sensitized for 30 minutes at 37° C. with anti-DNP (dinitrophenyl phosphate) IgE (1 μg/10^6 cells), and challenged with either DNP-BSA antigen ([…]/3×10^5 cells) or A23187 (10 μg/ml/3×10^5 cells) in 400 μl of complete Tyrode's buffer for 10 minutes at 37° C. Reaction mixtures were centrifuged at 200×g for 10 minutes, and supernatant and pellet β-hexasaminidase concentrations were assayed by the hydrolysis of p-nitrophenyl-β-D-glucosamide as described in Schwartz et al. in J. Immunol. […] Spontaneous β-hexosaminidase release was determined in unchallenged cells. The net % of β-hexosaminidase released is defined as follows: [formula] where [β-hex] is βhexosaminidase and super, is supernatant. When exogenous adenosine was present in reaction mixtures, it was added simultaneously with the secretagogue.

[5] = tested on: Mouse bone marrow-derived mast cells; experiment: Mast cell leukotriene C4 release (radioimmune assay); format: cell-based; settings: 100 μM for six days, challenged 20 minutes with A23187; control 51
Protocol: as §3

ischemic myocardium [6] = experiment: Coronary venous adenosine during coronary artery occlusion in dogs; format: in vivo, dog
Protocol: FIG. 3. […] Coronary venous blood was collected into chilled 2N perchloric acid at various times before and after coronary artery occlusion. Supernatants from these extracts were neutralized with alamine and freon and evaluated by high performance liquid chromotography.
as §1

ischemic myocardium [7] = tested on: ischemic myocardium
Protocol: Regional myocardial blood flow was measured using radiolabelled microspheres infused into the left atrium at 5 minutes (open) and 60 minutes (hatched) of occlusion. The means plus the standard deviations are graphed. The asterisks (*) identify differences from saline-treated dogs that are significant at p<0.01.
Thirteen mongrel dogs were anesthetized with phenobarbital. The anterior coronary vein was cannulated and a blood sample was collected into 2N perchloric acid. […] Regional myocardial blood flow was measured within 15 μm radiolabelled spheres infused into the left atrium at 5 and 60 minutes during the ischemic period, as described by Heymann et al. in Prog. […] The electrocardiogram and arterial pressure were monitored throughout the period of ischemia.

[8] = tested on: ischemia-induced arrhythmias; experiment: Arrhythmias during myocardial ischemia in dogs (electrocardiogram); format: in vivo, dog; settings: individual treated dogs 1-6
Protocol: as §1
One consequence of myocardial ischemia is arrhythmia and the frequency of arrhythmias is related to the degree of reduced blood flow. […] Electrocardiograms recorded during ischemia of Example III were analyzed for the number of premature ventricular depolarizations (PVD) and ventricular tachycardia (VTAC) episodes.

[9] = tested on: pentylene tetrazol-induced seizures; experiment: Pentylene tetrazol-induced seizures in the rat; format: in vivo; settings: 2000 mg/kg (total dose) intraperitoneal
[10] = tested on: HPRT+ neuroblastoma cells; experiment: Adenosine excretion by stimulated HPRT+ neuroblastoma cells (calcium ionophore A23187); format: cell-based
Protocol: as §2

[11] = tested on: patients with adenylosuccinase deficiency (autism); experiment: Therapeutic trial in patients with adenylosuccinase deficiency (autism); format: in vivo, human
Description: Following authorization, therapeutic trials with AICA riboside were started in two patients with adenylosuccinase deficiency (autism). […] On Day 55, both patients were briefly readmitted for clinical, biochemical and psychiatric evaluation. […] Treatment was maintained until Day 71, and arrested at that date.

AMP deaminase = AMP deaminase inhibition (14C-AMP to 14C-IMP conversion, lymphoblast lysate); format: biochemical, human; settings: 200 μM of each ribotide
[12] = three-hour preincubation and four-hour incubation during 2-deoxyglucose treatment

NC(=O)c1ncn([C@@H]2O[C@H](CO)[C@@H](O)[C@H]2O)c1N [AICA riboside, 5-amino-4-imidazolecarboxamide riboside]
inosine levels in venous blood (ischemic myocardium [1]): more than twofold decrease
adenosine release from lymphoblasts ([2]; 48-hour pretreatment, 100-500 micromolar): enhances adenosine release
adenosine release from lymphoblasts ([2]; 18 hours preincubation before 2-deoxyglucose exposure): enhanced adenosine release
adenosine release from lymphoblasts [2, 12]: increased adenosine release
Concentration of Adenosine ([3]; HPRT- cells, ionophore 0 μg/ml, AICA riboside 50 μM): < 0.01 µM
correction of lowered adenosine secretion of cells deficient in hypoxanthine phosphoribosyl transferase [3]: can be corrected
β-hexosaminidase released ([4]; 100 micromolar, A23187 1 μg/ml, 28.8% in its absence): 17.6%
supernatant leukotriene C4 concentration [5]: 13 nanograms/106 cells
peak coronary venous adenosine level (ischemic myocardium [6]; at 1 minute of ischemia, saline peak 0.22 ±0.08 at 10 minutes): 1.79 ± 0.35 µM
coronary venous adenosine level (ischemic myocardium [6]; at 60 minutes of ischemia, saline undetectable, in µM): 0.18±0.15
adenosine washout on reperfusion (ischemic myocardium [6]; reperfusion): significant rise
adenosine in blood from the right atrium (systemic blood) (ischemic myocardium [6]; systemic sampling): no detectable adenosine
systemic arterial pressure and heart rate versus saline (ischemic myocardium [7]; dog, in vivo): no significant differences
flow to normal myocardium (ischemic myocardium [7]; non-ischemic tissue): did not alter flow
PVD, individual dogs [8]: 12 EPISODES/H and 10 EPISODES/H and 4 EPISODES/H and 13 EPISODES/H and 6 EPISODES/H
VTAC, individual dogs [8]: 1 EPISODES/H and 0 EPISODES/H and 27 EPISODES/H
latency to seizure [9]: dramatic prolongation
adenosine secreted by treated cells versus control cells ([10]; 50 μM AICA riboside, A23187 and 1.0 μM deoxycoformycin): at least twofold more adenosine
Concentration of Adenosine ([10]; HPRT+ cells, ionophore 0 μg/ml, AICA riboside 50 μM): < 0.01 µM
AICA riboside in plasma and CSF ([11]; all dosages used): could not be detected
haematology and clinical chemistry parameters ([11]; before and during the trial treatment): found normal
AICA riboside in plasma ([11]; one hour after intravenous administration, 20 mg/kg/day): undetectable
concentration of ATP and GTP in the erythrocytes ([11]; patients): did not influence significantly
urinary output of succinyladenosine, SAICA riboside and uric acid ([11]; patients): without significant effect

NC(=O)c1ncn([C@@H]2O[C@H](COP(=O)(O)O)[C@@H](O)[C@H]2O)c1N [AICA ribotide]
AMP deaminase inhibited (AMP deaminase): 38%

NC(=O)c1ncn([C@@H]2O[C@H](COP(=O)(O)O)[C@@H](O)[C@H]2O)n1 [ribavirin monophosphate]
AMP deaminase inhibited (AMP deaminase): 54%

NC(=O)c1ncn([C@@H]2O[C@H](CO)[C@@H](O)[C@H]2O)n1 [ribavirin, 1-β-D-ribofuranosyl-1H-1,2,4-triazole-3-carboxamide, reference compound]
adenosine release from lymphoblasts [2, 12]: Increased in vitro adenosine release
adenosine release from lymphoblasts ([2]; three-hour preincubation and four-hour incubation during 2-deoxyglucose treatment, listed as ribivirin): increased adenosine release
correction of lowered adenosine secretion of cells deficient in hypoxanthine phosphoribosyl transferase [3]: can be corrected
mediator release ([4]; 1 μM for six days): inhibits mediator release significantly
net β-hexosaminidase release versus controls ([4]; 1, 10, or 2 μm for six days, challenged with A23187): released significantly less
β-hexosaminidase release compared to cells cultured in media alone ([4]; three to seven days in 10 μM, washed, challenged with A23187, p<0.05): marked attenuation
